Measured values from patent US10695366B2 (ZS PHARMA, INC., priority 2013, dated 2020).

System: beagles
Conditions: dog, in vivo
Protocol: The following 14-day study is designed to show the effect of particle size and particle form on the urinary pH and presence of crystals in the urine. The compounds above are administered to beagles orally by mixing with wet dog food. The regimen is administered 3 times a day at 6 hour intervals over a 12 hour period in the following manner:
The dose levels were 100 or 600 mg/kg/dose.

test article-related findings (direct or indirect), microscopic: not present
Substance: microporous zirconium silicate [ZS-9]
